One experiment concerns spinal cord. The experiment is described as follows: Transcriptional profiling, multi-dosing regimen, naïve mice: spinal cord. Type of experiment: in vivo. To be noted: for FC, Depp (1433836_PM_a_at) / FC, Depp (1433837_PM_at): SpinalCord, multi-dosing; for Number of differentially expressed genes identified: Spinal Cord: Table 13: Naïve, Single Dose (so in the source), 12 h after last dosing. As to the method:
(§1) In vivo, DMF is rapidly metabolized to monomethyl fumarate (MMF). […] Animals were exposed to CO2 and whole blood collected via cardiac puncture. Two 100 μl aliquots of whole blood were collected in 1.5 mL microcentrifuge tubes and snap frozen in liquid nitrogen. Peripheral (liver, spleen, kidney and jejunum) and CNS brain (cerebellum, hippocampus, striatum and cortex) tissues were harvested and snap frozen in liquid nitrogen, with special care taken to collect tissues of similar size and from the same location. All samples were stored at -80° C. until RNA extraction was conducted. For RNA preparation, frozen tissues were placed in 2 mL RNAse-free 96-well blocks with 1.5 mL QIAzol Lysis Reagent (QIAgen) and a 3.2 mm stainless steel bead (BioSpec Products, Bartlesville, Okla.). Tissues were disrupted for four cycles of 45 seconds in a Mini-Beadbeater (Biospec Products). RNA was extracted in chloroform and the aqueous phase was mixed with an equal volume of 70% ethanol. Extracted RNA was applied to RNeasy 96 plates and purified by the spin method according to the manufacturer's protocol (RNeasy 96 Universal Tissue Protocol, QIAgen, Hilden Germany). […] Two micrograms of biotin labeled […] probe were hybridized to Affymetrix GeneChip Affymetrix HT_MG-430_PM plate arrays with modified conditions as described in […] et al. Washing and staining of the hybridized arrays were completed as described in the GeneChip Expression analysis technical manual for HT plate arrays using the Genechip® Array Station (Affymetrix, Santa Clara, Calif.) with modifications as described in […] et al. The processed GeneChip® plate arrays were scanned using GeneTitan scanner (Affymetrix, Santa Clara, Calif.). Affymetrix scans were subject to quality control (QC) measures. These tests included a visual inspection of the distribution of raw signal intensities and an assessment of RNA degradation, relative log expression (RLE), and normalized unsealed standard error (NUSE). All sample scans that passed these QC metrics were included in the analysis. All CEL files were subjected to GC-content-based Robust Multi-array Average (GCRMA) normalization (version 2.20.0) (Irizarry R A, et al. Nucleic Acids Res 2003; 31:e15; Li C, et al. […] Stat Appl Genet Mol Biol 2004; 3:Article3). […] Springer Science+Business Media 2005). Changes in gene expression were studied by applying a linear modeling approach to fit gene expression levels according to the defined groups of samples (e.g. DMF-, MMF-, and Vehicle-treated animals) and Bayesian posterior error analysis as implemented by Smyth (Smyth G K. Stat Appl Genet Mol Biol 2004; 3:Article3). The comparisons considered included: DMF-vs-MMF, DMF-vs-Vehicle, and MMF-vs-Vehicle. […] Very few DEGs are observed in blood and tissues derived from the central nervous system (brain, cerebellum, cortex, striatum, and spinal cord).

In a further experiment the test system is brain. Put plainly: Transcriptional profiling, multi-dosing regimen, naïve mice: brain. It is filed as in vivo. To be noted: for FC: BRAIN_HEMI, 100DMF-vs-Veh; for FC, Depp (1433836_PM_a_at): BrainHemi, multi-dosing; for Number of differentially expressed genes identified: Brain Hemi: Table 13: Naïve, Single Dose (so in the source), 12 h after last dosing. As to the method: as §1

Where [1] appears, read: SPINAL CORD, 100DMF-vs-100MMF, naïve multidose.

Where a name gives a salt, the structure may show the parent alone.

Consider `COC(=O)/C=C/C(=O)OC` [DMF, dimethyl fumarate], for which, in the experiment with spinal cord (setting [1]), the “FC 8430408G22Rik (1433836_PM_a_at)” value was 1.92. Also, the “FC 8430408G22Rik (1433837_PM_at)” value was 1.65 in the experiment with spinal cord (setting [1]) and 1.73 in the experiment with spinal cord (SPINAL CORD, 100DMF-vs-Veh, naïve multidose). Also, in the experiment on spinal cord (setting [1]), the “FC Mtmr2 (1425459_PM_at)” value is 1.57. Moreover, the “FC Tle4 (1430384_PM_at)” value in the experiment with spinal cord (setting [1]) is given as −1.55. The “FC, Depp (1433836_PM_a_at)” value in the experiment on spinal cord (DMF-vs-MMF) is reported as 1.92; in the experiment with spinal cord (DMF-vs-Vehicle), 1.66; with brain (DMF-vs-MMF) it was 1.78; with brain (DMF-vs-Vehicle) it was 1.77. For the same molecule, the “FC, Depp (1433837_PM_at)” value with spinal cord (DMF-vs-MMF) is 1.65; in the experiment on spinal cord (DMF-vs-Vehicle), 1.73. Further, the figures for the “Number of differentially expressed genes identified: Spinal Cord” value with spinal cord (100 mpk DMF-vs-90 mpk MMF) and with spinal cord (100 mpk DMF-vs-Vehicle) were 4 and 1, respectively. Further, the “DEPP gene induction (mRNA)” value in the experiment with spinal cord (spinal cord, multi-dosing regimen, naïve mice) is reported as “robustly induced”; in the experiment with brain (brain, multi-dosing regimen, naïve mice), “robustly induced”. Besides, the FC was 2.00 with brain (2310079F09Rik 1433201_PM_at), 1.77 with brain (8430408G22Rik 1433836_PM_a_at) and −1.69 in the experiment with brain (Pvrl3 1457257_PM_x_at). The results for the “Number of differentially expressed genes identified: Brain Hemi” value with brain (100 mpk DMF-vs-90 mpk MMF) and in the experiment with brain (100 mpk DMF-vs-Vehicle) were 8 and 3, respectively.

The values are drawn from US20160115540A1, “PRODRUGS AND DRUGS” (Biogen MA Inc., priority 2013, published 2016).
